Laboratory results: patent US12589158B2 (priority 2022, dated 2026)
Read-outs that look alike come from different tables or passages of the source.

Assays:
[1] = in vivo
[2] = Pharmacokinetics in cynomolgus monkeys; conditions: cynomolgus monkey, in vivo
Description: After subcutaneous or intravenous administration to cynomolgus monkeys, plasma is collected and the drug concentration in plasma is determined to illustrate the in vivo pharmacokinetic properties of the compound according to the present invention. The compound is dissolved in 1.4% PG in 8 mM Na2HPO4 Buffer (pH 7.39), and filtered through a filter membrane (PTFE, 0.45 μm) to obtain 25 and 12.5 nmol/mL solution of the compound respectively. The obtained solutions are administered to cynomolgus monkeys (4-8 kg) at a dose of 25 nmol/kg subcutaneously (s.c.) or 12.5 nmol/kg intravenously (i.v.). […] The blood samples are centrifuged at 2200 g for 10 minutes to obtain a plasma, which is stored at −90° C. to −60° C. for further analysis and assay.
70.0 μL of thawed plasma sample is taken. 70 μL of acetonitrile (containing 1 ng/ml of the internal standard) is added to precipitate protein. The mixture is vortexed for 1 minute, and centrifuged at 14000 rpm for 10 minutes. 60.0 μL of the supernatant is taken, into which 60.0 μL of 0.5% aqueous formic acid solution is added. The mixture is vortexed for 5 minutes. 10 μL of the mixture solution is sampled and injected into the LC-MS/MS to determine the drug concentration in plasma.
Based on the drug concentration in plasma of the compounds in the cynomolgus monkeys, the pharmacokinetic parameters are calculated by applying the software Winnolin 8.2 in a non-compartmental model, and the results are shown in Table 9 and Table 10 below.

[3] = Pharmacokinetics in C57 mice; conditions: mouse, in vivo
Description: After subcutaneous or intravenous administration to C57 mice, plasma is collected and the drug concentration in plasma is determined to illustrate the in vivo pharmacokinetic properties of the compound according to the present invention. […] 20.0 μL of thawed plasma sample is taken. 20 μL of 50% aqueous methanol solution (containing 100 ng mL^−1 internal standard) and 60 μL of acetonitrile are added sequentially to precipitate protein. The mixture is vortexed for 5 minutes, and centrifuged at 3700 rpm for 8 minutes. 50.0 μL of the supernatant is taken, into which 50.0 μL of 0.5% aqueous formic acid solution is added. The mixture is vortexed for 5 minutes. 50 μL of the mixture solution is sampled and injected into the LC-MS/MS to determine the drug concentration in plasma.

[4] = type: in vivo; conditions: rat, in vivo, male SD rats
Description: (§1) 77 SD male rats (SPF grade) are selected and randomly divided into 10 groups based on body weight. Group 1 is the vehicle control group, including 5 animals. […] Group 5 to Group 7 are the groups administrated with the test substance 1; and Group 8 to Group 10 are the groups administrated with the test substance 2, each group including 8 animals, wherein 5 animals for primary test, and 3 animals for toxicokinetics test, and the administration dose is 1, 3 and 10 mg/kg respectively. Each of the above groups is continuously administered twice a week for 2 weeks (administrating at Day 1, Day 5, Day 8, Day 12 and Day 15).
(§2) During the experiment, the cage condition monitoring, detailed clinical observations, determination of the food consumption, determination of body weight, measurement of the blood biochemical and hematology indicator, investigation of the gross anatomy, weighing of the organ, studying on toxicokinetic are performed on all the groups of the animals.
(§3) Original data during each time period is tabulated. The average values and standard deviations and/or group change are calculated for each assay endpoint based on the group and sex. For each endpoint, the administrated group will be compared with the control group in the following aspect. A logarithmic conversion is performed to the endpoint data as desired prior to the start of the specific analyses.

SD male rats = type: in vivo
Description: as §1, §2, §3

[5] = Pharmacokinetics following single administration in SD rat; parameters: species or system SD rats; conditions: in vivo, sc, 50 nmol/kg
Description: The compound is administrated to male SD rats (230-268 g, n=3) at a dose of 50.0 nmol/kg (s.c.) or 25.0 nmol/kg (i.v.). […] 30.0 μL of thawed plasma sample is taken. 150 μL of acetonitrile solution (containing 5 ng mL^−1 Verapamil, 50 ng·mL^−1 Glibenclamide, 200 ng·mL^−1 Tolbutamide and 200 ng·mL^−1 Diclofenac) are added to precipitate protein. The mixture is vortexed for 5 minutes, and centrifuged at 3700 rpm for 8 minutes. 70.0 μL of the supernatant is taken, into which 70.0 μL of 0.5% aqueous formic acid solution is added. The mixture is vortexed for 5 minutes. 15 μL of the mixture solution is sampled and injected into the LC-MS/MS to determine the drug concentration in plasma. 20.0 μL of thawed plasma sample is taken. 60 μL of acetonitrile solution (containing 5 ng mL^−1 Verapamil, 50 ng·mL^−1 Glibenclamide, 200 ng·mL^−1 Tolbutamide and 200 ng·mL^−1 Diclofenac) are added to precipitate protein. […] The mixture is vortexed for 10 minutes. 10.0 μL of the mixture solution is sampled and injected into the LC-MS/MS to determine the drug concentration in plasma. 30.0 μL of thawed plasma sample is taken. 150 μL of acetonitrile solution (containing 5 ng mL^−1 Verapamil, 50 ng mL^−1 Glibenclamide, 200 ng·mL^−1 Tolbutamide and 200 ng·mL^−1 Diclofenac) are added to precipitate protein. The mixture is vortexed for 5 minutes, and centrifuged at 3700 rpm for 8 minutes. 70.0 μL of the supernatant is taken, into which 70.0 μL of 0.5% aqueous formic acid solution is added. The mixture is vortexed for 5 minutes. 10.0 μL of the mixture solution is sampled and injected into the LC-MS/MS to determine the drug concentration in plasma.

[6] = Pharmacokinetics in beagle dogs; type: in vivo; conditions: 0.05 mg/kg
Description: After subcutaneous administration to beagle dogs, plasma is collected and the drug concentration in plasma is determined to illustrate the in vivo pharmacokinetic properties of the compound according to the present invention. The compound of the present invention is administered to a beagle dog (7-9 kg) at a dose of 0.05 mg/kg subcutaneously (s.c.). About 500 μL of whole blood is collected from the saphenous vein into an EDTA-K2 anticoagulant tube at predose, 0.5 hours, 1 hour, 2 hours, 6 hours, 10 hours, 24 hours, 48 hours, 72 hours and 96 hours, respectively. The blood samples are centrifuged at 3000 g and at 2° C. to 8° C. for 10 minutes to obtain plasma, which is stored at −90° C. to −60° C. for further analysis and assay.
20.0 μL of thawed plasma sample is taken. […] Then 120 μL of 0.1% formic acid methanol is added to precipitate the protein. The mixture is vortexed for 5 minutes, and centrifuged at 4815 g for 10 minutes. 100.0 μL of the supernatant is taken, into which 100 μL of 0.5% aqueous formic acid solution is added. The mixture is vortexed for 5 minutes. 10 μL of the mixture solution is sampled and injected into the LC-MS/MS to determine the drug concentration in plasma.
Based on the drug concentration in plasma of the compound in the beagle dogs, the pharmacokinetic parameters are calculated by applying the software Winnolin 8.3 in a non-compartmental model.

[7] = male SD rats, twice a week for 2 weeks, 1, 3, 10 mg/kg

SMILES: CC[C@H](C)[C@H](NC(=O)C(C)(C)NC(=O)[C@H](Cc1ccc(O)cc1)NC(=O)[C@H](CC(=O)O)NC(=O)[C@H](CO)NC(=O)[C@@H](NC(=O)C(C)(Cc1ccccc1)NC(=O)[C@@H](NC(=O)CNC(=O)[C@H](CCC(=O)O)NC(=O)C(C)(C)NC(=O)[C@@H](N)Cc1ccc(O)cc1)[C@@H](C)O)[C@@H](C)O)C(=O)NC(C)(C)C(=O)N[C@@H](CC(C)C)C(=O)N[C@@H](CC(=O)O)C(=O)N[C@@H](CCCCN)C(=O)N[C@@H](CCC(N)=O)C(=O)N[C@@H](C)C(=O)N[C@@H](CCC(N)=O)C(=O)N[C@@H](C)C(=O)N[C@@H](CCC(=O)O)C(=O)N[C@@H](Cc1ccccc1)C(=O)N[C@H](C(=O)N[C@@H](CCCCNC(=O)COCCOCCNC(=O)COCCOCCNC(=O)COCCOCCNC(=O)CC[C@H](NC(=O)CCCCCCCCCCCCCCCCCCCCC(=O)O)C(=O)O)C(=O)N[C@@H](Cc1c[nH]c2ccccc12)C(=O)N[C@@H](CC(C)C)C(=O)N[C@@H](CC(C)C)C(=O)N[C@@H](CCCCN)C(=O)NCC(=O)NCC(=O)N1CCC[C@H]1C(=O)N[C@@H](CO)C(=O)N[C@@H](CO)C(=O)NCC(=O)N[C@@H](C)C(=O)N1CCC[C@H]1C(=O)N1CCC[C@H]1C(=O)N1CCC[C@H]1C(=O)N[C@@H](CO)C(=O)N[C@@H](CCCCN)C(N)=O)C(C)C (some centres unmarked) [P016]
- heart rate recovery time [1]: 72 to 120 h
- increase in HR [1]: lower than that for Tirepatide
- MRT inf ([2]; iv, 12.5 nmol/kg): 72.9 ± 10.9 h
- MRT last ([2]; iv, 12.5 nmol/kg): 65.3 ± 8.85 h
- T1/2 ([2]; iv, 12.5 nmol/kg): 59.81 ± 8.95 h
- MRT inf ([2]; sc, 25 nmol/kg): 101 ± 19.2 h
- MRT last ([2]; sc, 25 nmol/kg): 96.5 ± 15.9 h
- T1/2 ([2]; sc, 25 nmol/kg): 60.40 ± 12.80 h
- MRT inf ([3]; iv): 26.6 h
- MRT last ([3]; iv): 19.9 h
- MRT inf ([3]; sc): 35.9 h
- MRT last ([3]; sc): 26 h
- MTD ([4]; MTD for 2 weeks, twice a week): 1.92 µmol/kg
- MTD ([4]; continuously administered twice a week for 2 weeks): > 10 mg/kg
- Toxicokinetic: Cmax and AUC versus dose (SD male rats; male SD rats, 1, 3, 10 mg/kg): increase nearly proportionally to the dose
- Toxicokinetic: accumulation (SD male rats; male SD rats, continuously administered twice a week for 2 weeks): no substantial accumulation
- Food Intake (SD male rats; [7]): dose-dependent decrease
- Gross Anatomy (SD male rats; [7]): no abnormalities are found
- Safety Window (based on dosage) (SD male rats; rat MTD for 2 weeks vs efficacy dose in db/db mice): 1282
- MRT inf [5]: 31.1 ± 1 h
- MRT last [5]: 28.1 ± 1.12 h
- T1/2 [5]: 14.1 ± 0.153 h
- AUC(0-t) ([6]; beagle dogs, single subcutaneous administration, plasma): 29925 ng·h/mL
- MRT inf ([6]; dog, in vivo, sc): 108 ± 23.2 h
- MRT last ([6]; dog, in vivo, sc): 44.8 ± 4.17 h
- T1/2 ([6]; dog, in vivo, sc): 69.32 h
